Measurements taken from patent US8946147B2 (priority 2010, dated 2015).
Several values for one entry are separate records, joined by “and”; a condition that tells them apart may be missing. Equal entries are not always repeated. Positions of bridges follow the written chain, without caps; N, C: chain ends. Non-standard residues stand in square brackets, D forms with d. Residues, ends and D or L forms follow the SMILES beside them. Chains are numbered I, II in the order given. *: point of attachment. Phe(4-NH2) = Nc1ccc(C[C@H](N)C(=O)O)cc1; X1 = NOCC(=O)*

Legend:
[1] = target: T1, human insulin receptor (Homo sapiens, UniProt P06213); assay: Insulin receptor binding assay (scintillation proximity competition); settings: for % Activity of Insulin: Table 3A, in vitro binding
T1 construct: expressed in transfected cells; plasma membrane fragments
T1 sequence (P06213 28-758 limits assumed): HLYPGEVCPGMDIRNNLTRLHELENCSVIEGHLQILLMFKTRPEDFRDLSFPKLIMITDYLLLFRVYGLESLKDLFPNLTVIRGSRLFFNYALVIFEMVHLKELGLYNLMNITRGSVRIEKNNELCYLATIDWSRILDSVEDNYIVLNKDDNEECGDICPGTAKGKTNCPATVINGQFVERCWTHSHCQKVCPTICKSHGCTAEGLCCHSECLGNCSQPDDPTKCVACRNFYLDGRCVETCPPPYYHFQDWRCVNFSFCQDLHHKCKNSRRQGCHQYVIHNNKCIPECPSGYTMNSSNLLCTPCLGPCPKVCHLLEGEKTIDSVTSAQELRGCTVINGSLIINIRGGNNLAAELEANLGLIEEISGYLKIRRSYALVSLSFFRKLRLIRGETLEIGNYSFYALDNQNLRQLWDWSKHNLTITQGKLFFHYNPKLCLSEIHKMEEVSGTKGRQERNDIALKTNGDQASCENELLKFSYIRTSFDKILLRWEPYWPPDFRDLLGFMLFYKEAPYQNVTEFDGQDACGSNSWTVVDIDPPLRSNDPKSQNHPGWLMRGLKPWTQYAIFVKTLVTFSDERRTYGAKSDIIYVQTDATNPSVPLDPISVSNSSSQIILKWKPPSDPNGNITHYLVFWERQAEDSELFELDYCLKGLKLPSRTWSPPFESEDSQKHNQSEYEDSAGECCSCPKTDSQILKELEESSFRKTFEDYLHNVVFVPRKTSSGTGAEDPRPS
T1 sequence (P06213 763-1382 partner limits assumed): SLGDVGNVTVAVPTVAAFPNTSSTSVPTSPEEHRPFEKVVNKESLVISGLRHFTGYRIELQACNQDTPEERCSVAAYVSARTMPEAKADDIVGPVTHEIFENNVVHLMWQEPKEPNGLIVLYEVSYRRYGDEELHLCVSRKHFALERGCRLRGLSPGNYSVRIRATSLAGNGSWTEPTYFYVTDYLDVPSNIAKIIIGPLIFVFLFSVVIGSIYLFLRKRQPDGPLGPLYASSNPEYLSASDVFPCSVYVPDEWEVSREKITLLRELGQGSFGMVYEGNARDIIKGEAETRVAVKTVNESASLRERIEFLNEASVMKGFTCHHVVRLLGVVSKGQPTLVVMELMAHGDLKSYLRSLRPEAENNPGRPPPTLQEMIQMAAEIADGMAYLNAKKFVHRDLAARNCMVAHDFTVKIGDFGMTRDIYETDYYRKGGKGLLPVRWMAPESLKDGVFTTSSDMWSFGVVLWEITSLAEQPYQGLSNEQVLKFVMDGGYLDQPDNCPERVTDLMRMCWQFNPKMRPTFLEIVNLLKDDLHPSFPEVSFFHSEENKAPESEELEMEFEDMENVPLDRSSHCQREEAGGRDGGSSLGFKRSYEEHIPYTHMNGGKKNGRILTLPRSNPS

[2] = target: T2, insulin receptor (receptor transfected HEK293 cells) (Homo sapiens, UniProt P06213); assay: Insulin receptor phosphorylation assay; type: cell-based; settings: for % Activity of Insulin: Table 3B, in vitro phosphorylation
T2 construct: expressed in transfected cells; host or cells: HEK293
T2 sequence (P06213 28-758 limits assumed): as the sequence (P06213 28-758 limits assumed) above
T2 sequence (P06213 763-1382 partner limits assumed): as the sequence (P06213 763-1382 partner limits assumed) above

[3] = system: C57/Blk mice; assay: Comparative insulin tolerance test (blood glucose lowering) in mice; type: in vivo; settings: C57 black mice
Description: […]. […] […]. These in vivo results are consistent with the in vitro analysis.
[…]. […] […].

[4] = target: T3, IGF-1 Receptor (Homo sapiens, UniProt P08069); assay: IGF-1 receptor phosphorylation assay; type: cell-based; set-up: expressed in transfected cells; host or cells: HEK293; settings: Table 10
T3 sequence (P08069 31-736 limits assumed): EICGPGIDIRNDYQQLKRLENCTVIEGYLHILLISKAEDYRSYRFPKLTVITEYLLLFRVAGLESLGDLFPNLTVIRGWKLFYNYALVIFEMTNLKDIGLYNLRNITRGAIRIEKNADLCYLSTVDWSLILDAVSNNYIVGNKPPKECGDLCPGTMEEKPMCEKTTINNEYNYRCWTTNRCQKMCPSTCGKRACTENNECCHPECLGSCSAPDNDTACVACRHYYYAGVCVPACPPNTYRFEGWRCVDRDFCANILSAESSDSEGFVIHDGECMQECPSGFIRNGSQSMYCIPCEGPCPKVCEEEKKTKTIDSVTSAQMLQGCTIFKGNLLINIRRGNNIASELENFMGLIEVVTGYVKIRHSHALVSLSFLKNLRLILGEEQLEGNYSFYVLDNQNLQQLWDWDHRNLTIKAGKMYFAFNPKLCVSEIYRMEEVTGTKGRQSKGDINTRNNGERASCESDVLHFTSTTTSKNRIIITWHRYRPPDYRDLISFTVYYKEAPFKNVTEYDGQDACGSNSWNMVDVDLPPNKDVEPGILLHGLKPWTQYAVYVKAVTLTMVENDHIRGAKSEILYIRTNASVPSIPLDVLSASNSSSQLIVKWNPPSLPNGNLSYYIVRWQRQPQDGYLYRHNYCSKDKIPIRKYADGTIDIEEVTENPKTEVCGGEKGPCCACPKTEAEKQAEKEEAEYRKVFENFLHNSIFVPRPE
T3 sequence (P08069 741-1367 partner limits assumed): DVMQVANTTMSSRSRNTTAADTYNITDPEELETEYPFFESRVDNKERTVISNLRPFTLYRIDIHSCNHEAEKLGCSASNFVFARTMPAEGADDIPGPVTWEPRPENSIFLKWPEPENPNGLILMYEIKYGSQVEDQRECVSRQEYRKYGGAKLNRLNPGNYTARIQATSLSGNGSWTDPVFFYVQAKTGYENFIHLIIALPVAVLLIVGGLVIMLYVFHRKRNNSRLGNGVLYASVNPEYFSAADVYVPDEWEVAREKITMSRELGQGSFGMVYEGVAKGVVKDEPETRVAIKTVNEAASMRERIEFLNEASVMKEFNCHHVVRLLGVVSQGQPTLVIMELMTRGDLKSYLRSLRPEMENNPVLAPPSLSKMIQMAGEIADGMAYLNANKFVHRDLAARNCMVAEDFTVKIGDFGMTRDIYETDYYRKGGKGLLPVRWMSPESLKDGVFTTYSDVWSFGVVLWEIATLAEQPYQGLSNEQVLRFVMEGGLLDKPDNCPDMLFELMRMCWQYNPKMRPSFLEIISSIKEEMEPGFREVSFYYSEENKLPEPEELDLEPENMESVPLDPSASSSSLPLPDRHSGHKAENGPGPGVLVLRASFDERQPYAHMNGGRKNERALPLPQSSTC

[5] = target: T3, IGF-1 Receptor; assay: IGF-1 receptor binding assay (scintillation proximity competition); set-up: expressed in transfected cells; plasma membrane fragments; settings: Table 9
[6] = target: insulin A subtype receptor (IR-A) (Homo sapiens, UniProt P06213); assay: Phosphorylation assay at insulin A subtype receptor; settings: Table 14
Sequence of insulin A subtype receptor (IR-A) (P06213 28-1370 isoform P06213-2 limits assumed): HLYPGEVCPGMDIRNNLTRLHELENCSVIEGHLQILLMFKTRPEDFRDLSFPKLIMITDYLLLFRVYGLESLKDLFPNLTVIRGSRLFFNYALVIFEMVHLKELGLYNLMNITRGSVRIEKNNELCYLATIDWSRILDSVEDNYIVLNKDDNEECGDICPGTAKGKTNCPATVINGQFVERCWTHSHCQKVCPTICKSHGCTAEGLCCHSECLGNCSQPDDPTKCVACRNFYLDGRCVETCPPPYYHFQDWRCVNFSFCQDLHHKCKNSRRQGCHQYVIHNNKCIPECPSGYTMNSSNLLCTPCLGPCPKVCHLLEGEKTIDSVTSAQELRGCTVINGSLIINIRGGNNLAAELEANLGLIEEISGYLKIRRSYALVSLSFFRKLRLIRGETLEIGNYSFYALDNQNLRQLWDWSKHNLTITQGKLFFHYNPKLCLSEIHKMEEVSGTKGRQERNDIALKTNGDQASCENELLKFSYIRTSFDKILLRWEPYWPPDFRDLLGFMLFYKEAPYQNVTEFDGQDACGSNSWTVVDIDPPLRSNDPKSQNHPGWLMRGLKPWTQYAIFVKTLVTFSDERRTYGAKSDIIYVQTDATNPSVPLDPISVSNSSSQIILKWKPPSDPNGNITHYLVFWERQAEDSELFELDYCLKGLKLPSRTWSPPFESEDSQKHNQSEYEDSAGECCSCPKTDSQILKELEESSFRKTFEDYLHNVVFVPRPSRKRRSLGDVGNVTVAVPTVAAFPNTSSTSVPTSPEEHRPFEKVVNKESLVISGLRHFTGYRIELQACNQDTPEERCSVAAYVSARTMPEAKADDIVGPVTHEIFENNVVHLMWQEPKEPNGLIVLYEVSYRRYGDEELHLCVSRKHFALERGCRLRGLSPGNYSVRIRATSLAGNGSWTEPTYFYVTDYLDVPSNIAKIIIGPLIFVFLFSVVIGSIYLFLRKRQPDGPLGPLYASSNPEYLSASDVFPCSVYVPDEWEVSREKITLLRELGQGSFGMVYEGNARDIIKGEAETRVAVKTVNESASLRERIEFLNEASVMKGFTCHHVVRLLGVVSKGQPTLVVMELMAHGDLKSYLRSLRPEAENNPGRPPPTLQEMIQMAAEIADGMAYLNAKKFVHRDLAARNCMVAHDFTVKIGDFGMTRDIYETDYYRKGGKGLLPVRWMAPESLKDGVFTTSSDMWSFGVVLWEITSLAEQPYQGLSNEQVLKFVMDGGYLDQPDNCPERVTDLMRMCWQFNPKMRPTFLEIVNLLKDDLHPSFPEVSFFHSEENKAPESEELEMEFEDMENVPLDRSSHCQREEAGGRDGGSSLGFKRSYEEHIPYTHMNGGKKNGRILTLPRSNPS
Sequence of insulin A subtype receptor (IR-A) (P06213 763-1382 partner limits assumed): as the sequence (P06213 763-1382 partner limits assumed) above

[7] = target: insulin B subtype receptor (IR-B) (Homo sapiens, UniProt P06213); assay: Phosphorylation assay at insulin B subtype receptor; settings: Table 14
Sequence of insulin B subtype receptor (IR-B) (P06213 28-758 limits assumed): as the sequence (P06213 28-758 limits assumed) above
Sequence of insulin B subtype receptor (IR-B) (P06213 763-1382 partner limits assumed): as the sequence (P06213 763-1382 partner limits assumed) above

CC[C@H](C)[C@H](NC(=O)CN)C(=O)N[C@H](C(=O)N[C@@H](CC(=O)O)C(=O)N[C@@H](CCC(=O)O)C(=O)N[C@H]1CSSC[C@@H]2NC(=O)[C@H](CO)NC(=O)[C@H](C)NC(=O)[C@H](Cc3c[nH]cn3)NC(=O)[C@H](CSSC[C@H](NC(=O)[C@H](CC(C)C)NC(=O)[C@H](Cc3c[nH]cn3)NC(=O)[C@H](CCC(=O)O)NC(=O)[C@@H]3CCCN3C(=O)CN)C(=O)NCC(=O)N[C@@H](C)C(=O)N[C@@H](CC(=O)O)C(=O)N[C@@H](CC(C)C)C(=O)N[C@@H](C(C)C)C(=O)N[C@@H](CC(=O)O)C(=O)N[C@@H](C)C(=O)N[C@@H](CC(C)C)C(=O)N[C@@H](Cc3ccc(O)cc3)C(=O)N[C@@H](CC(C)C)C(=O)N[C@@H](C(C)C)C(=O)N[C@H](C(=O)NCC(=O)N[C@@H](CC(=O)O)C(=O)N[C@@H](C)C(=O)NCC(=O)N[C@@H](Cc3ccccc3)C(=O)N[C@@H](Cc3ccc(O)cc3)C(N)=O)CSSC[C@@H](C(=O)N[C@@H](CC(N)=O)C(=O)O)NC(=O)[C@H](Cc3ccc(O)cc3)NC(=O)[C@H](CC[S+](C)[O-])NC(=O)[C@H](CCC(=O)O)NC(=O)[C@H](CC(C)C)NC(=O)[C@H](CCCNC(=N)N)NC(=O)[C@H](CCCNC(=N)N)NC(=O)[C@H](CC(C)C)NC(=O)[C@H](CC(=O)O)NC2=O)NC1=O)C(C)C (stereo partly shown)
Insulin Receptor % insulin (in test) ([1]; Table 9): 400.7%

CC[C@H](C)[C@H](NC(=O)CN)C(=O)N[C@H](C(=O)N[C@@H](CC(=O)O)C(=O)N[C@@H](CCC(=O)O)C(=O)N[C@@H](C)C(=O)N[C@@H](C)C(=O)N[C@@H](Cc1ccccc1)C(=O)N[C@@H](CCCNC(=N)N)C(=O)N[C@@H](CO)C(=O)N[C@@H](C)C(=O)N[C@@H](CC(=O)O)C(=O)N[C@@H](CC(C)C)C(=O)N[C@@H](CCCNC(=N)N)C(=O)N[C@@H](CCCNC(=N)N)C(=O)N[C@@H](CC(C)C)C(=O)N[C@@H](CCC(=O)O)C(=O)N[C@@H](CCSC)C(=O)N[C@@H](Cc1ccc(NC(=O)[C@H]2CCCN2C(=O)C(C)(C)N)cc1)C(=O)N[C@@H](C)C(=O)N[C@@H](C)C(N)=O)C(C)C [Aib dPro] (HELM PEPTIDE1{G.I.V.D.E.A.A.F.R.S.A.D.L.R.R.L.E.M.[O=C([C@H](Cc1ccc(N[*:3])cc1)N[*:1])[*:2]].A.A.[am]}|PEPTIDE2{[Aib].[dP]}$PEPTIDE1,PEPTIDE2,19:R3-2:R2$$$V2.0)
Half Life, 20% Plasma/PBS: 2.2 h

CC[C@H](C)[C@H](NC(=O)CN)C(=O)N[C@H](C(=O)N[C@@H](CC(=O)O)C(=O)N[C@@H](CCC(=O)O)C(=O)N[C@@H](C)C(=O)N[C@@H](C)C(=O)N[C@@H](Cc1ccccc1)C(=O)N[C@@H](CCCNC(=N)N)C(=O)N[C@@H](CO)C(=O)N[C@@H](C)C(=O)N[C@@H](CC(=O)O)C(=O)N[C@@H](CC(C)C)C(=O)N[C@@H](CCCNC(=N)N)C(=O)N[C@@H](CCCNC(=N)N)C(=O)N[C@@H](CC(C)C)C(=O)N[C@@H](CCC(=O)O)C(=O)N[C@@H](CCSC)C(=O)N[C@@H](Cc1ccc(NC(=O)CN(C)C(=O)[C@@H](N)CCCCN)cc1)C(=O)N[C@@H](C)C(=O)N[C@@H](C)C(N)=O)C(C)C [K Sar] (HELM PEPTIDE1{G.I.V.D.E.A.A.F.R.S.A.D.L.R.R.L.E.M.[O=C([C@H](Cc1ccc(N[*:3])cc1)N[*:1])[*:2]].A.A.[am]}|PEPTIDE2{K.[Sar]}$PEPTIDE1,PEPTIDE2,19:R3-2:R2$$$V2.0)
Half Life, 20% Plasma/PBS: 5.9 h

B^1(Y16,L17,Y25)29a: A^1(dLys(Ac),Sar-aF19) [MIU30]
% Activity of Insulin ([1]; incubated 0 hr in 20% plasma/PBS at 37° C.): 34.44% | % Activity of Insulin ([1]; incubated 9 hr in 20% plasma/PBS at 37° C.): 100.09% | % Activity of Insulin ([1]; incubated 95 hr in 20% plasma/PBS at 37° C.): 115.42% | % Activity of Insulin ([2]; incubated 1 hr in 20% plasma): 23.0% | % Activity of Insulin ([2]; incubated 3 hr in 20% plasma): 26.8% | % Activity of Insulin ([2]; incubated 6 hr in 20% plasma): 32.5% | % Activity of Insulin ([2]; incubated 9 hr in 20% plasma): 41.1% | % Activity of Insulin ([2]; incubated […] in 20% plasma): 43.2% | blood glucose (differential AUC vs vehicle, 8 hr) ([3]; 90 nmol/kg): little change in glucose | blood glucose (differential AUC vs vehicle, 8 hr) ([3]; 270 nmol/kg): glucose lowering

CC[C@H](C)[C@H](NC(=O)CNC(=O)[C@@H]1CCCN1C(=O)[C@H](C)N)C(=O)N[C@H](C(=O)N[C@@H](CC(=O)O)C(=O)N[C@@H](CCC(=O)O)C(=O)N[C@H]1CSSC[C@@H]2NC(=O)[C@H](CO)NC(=O)[C@H](CCCNC(=N)N)NC(=O)[C@H](Cc3ccccc3)NC(=O)[C@H](CSSC[C@H](NC(=O)[C@H](CC(C)C)NC(=O)[C@@H](NC(=O)[C@H](CCC(=O)O)NC(=O)[C@@H]3CCCN3C(=O)CN)[C@@H](C)O)C(=O)NCC(=O)N[C@@H](C)C(=O)N[C@@H](CCC(=O)O)C(=O)N[C@@H](CC(C)C)C(=O)N[C@@H](C(C)C)C(=O)N[C@@H](CC(=O)O)C(=O)N[C@@H](C)C(=O)N[C@@H](CC(C)C)C(=O)N[C@@H](Cc3ccc(O)cc3)C(=O)N[C@@H](CC(C)C)C(=O)N[C@@H](C(C)C)C(=O)N[C@H](C(=O)NCC(=O)N[C@@H](CC(=O)O)C(=O)N[C@@H](CCCNC(=N)N)C(=O)NCC(=O)N[C@@H](Cc3ccccc3)C(=O)N[C@@H](Cc3ccc(O)cc3)C(=O)N[C@@H](Cc3ccccc3)C(=O)N[C@@H](CC(N)=O)C(=O)N[C@@H](CCCCN)C(=O)N3CCC[C@H]3C(=O)N[C@H](C(N)=O)[C@@H](C)O)CSSC[C@@H](C(=O)N[C@@H](C)C(N)=O)NC(=O)[C@H](Cc3ccc(O)cc3)NC(=O)[C@H](CCSC)NC(=O)[C@H](CCC(=O)O)NC(=O)[C@H](CC(C)C)NC(=O)[C@H](CCCNC(=N)N)NC(=O)[C@H](CCCNC(=N)N)NC(=O)[C@H](CC(C)C)NC(=O)[C@H](CC(=O)O)NC2=O)NC1=O)C(C)C [IGF1(YL)A-1, 0^B16, 17(AlaPro)]
% of Insulin Activity ([1]; Table 8): 37.12% | insulin receptor binding (in words) ([1]; relative to native insulin): substantially reduced affinity for the insulin receptor

CC[C@H](C)[C@H](NC(=O)CN)C(=O)N[C@H](C(=O)N[C@@H](CC(=O)O)C(=O)N[C@@H](CCC(=O)O)C(=O)N[C@@H](C)C(=O)N[C@@H](C)C(=O)N[C@@H](Cc1ccccc1)C(=O)N[C@@H](CCCNC(=N)N)C(=O)N[C@@H](CO)C(=O)N[C@@H](C)C(=O)N[C@@H](CC(=O)O)C(=O)N[C@@H](CC(C)C)C(=O)N[C@@H](CCCNC(=N)N)C(=O)N[C@@H](CCCNC(=N)N)C(=O)N[C@@H](CC(C)C)C(=O)N[C@@H](CCC(=O)O)C(=O)N[C@@H](CCSC)C(=O)N[C@@H](Cc1ccc(NC(=O)[C@@H]2CCCN2C(=O)C(C)(C)N)cc1)C(=O)N[C@@H](C)C(=O)N[C@@H](C)C(N)=O)C(C)C [Aib Pro] (HELM PEPTIDE1{G.I.V.D.E.A.A.F.R.S.A.D.L.R.R.L.E.M.[O=C([C@H](Cc1ccc(N[*:3])cc1)N[*:1])[*:2]].A.A.[am]}|PEPTIDE2{[Aib].P}$PEPTIDE1,PEPTIDE2,19:R3-2:R2$$$V2.0)
Half Life, 20% Plasma/PBS: 2.1 h

CC[C@H](C)[C@H](NC(=O)CN)C(=O)N[C@H](C(=O)N[C@@H](CC(=O)O)C(=O)N[C@@H](CCC(=O)O)C(=O)N[C@H]1CSSC[C@@H]2NC(=O)[C@H](CO)NC(=O)[C@H](C)NC(=O)[C@H](Cc3c[nH]cn3)NC(=O)[C@H](CSSC[C@H](NC(=O)[C@H](CC(C)C)NC(=O)[C@H](Cc3c[nH]cn3)NC(=O)[C@H](CCC(=O)O)NC(=O)[C@@H]3CCCN3C(=O)CN)C(=O)NCC(=O)N[C@@H](C)C(=O)N[C@@H](CC(=O)O)C(=O)N[C@@H](CC(C)C)C(=O)N[C@@H](C(C)C)C(=O)N[C@@H](CC(=O)O)C(=O)N[C@@H](C)C(=O)N[C@@H](CC(C)C)C(=O)N[C@@H](Cc3ccc(O)cc3)C(=O)N[C@@H](CC(C)C)C(=O)N[C@@H](C(C)C)C(=O)N[C@H](C(=O)NCC(=O)N[C@@H](CC(=O)O)C(=O)N[C@@H](CCCNC(=N)N)C(=O)NCC(=O)N[C@@H](Cc3ccccc3)C(=O)N[C@@H](Cc3ccc(O)cc3)C(N)=O)CSSC[C@@H](C(=O)N[C@@H](CC(N)=O)C(=O)O)NC(=O)[C@H](Cc3ccc(O)cc3)NC(=O)[C@H](CCSC)NC(=O)[C@H](CCC(=O)O)NC(=O)[C@H](CC(C)C)NC(=O)[C@H](CCCNC(=N)N)NC(=O)[C@H](CCCNC(=N)N)NC(=O)[C@H](CC(C)C)NC(=O)[C@H](CC(=O)O)NC2=O)NC1=O)C(C)C
Ratio ([1]; Table 9, IGF-1 receptor IC50 / insulin receptor IC50): 80.6 | Insulin Receptor % Insulin ([2]; Table 10, listed as IGF-1 A (H8 A9 N21) B (H5D10Y16L17) DPI A-COOH): 840% and 1080% | IGF-1 Receptor % IGF [4]: 181.395% | IGF-1 Receptor % IGF-1 (in test) [5]: 12.9%

I: X1-GPEHLCGAHLVDALYLVCGDRGFY-NH2 / II: H-GIVDECCFRSCDLRRLEN[Phe(4-NH2)]CN-OH (disulfide I:6-II:7, I:18-II:20, II:6-II:11) [Unpegylated pNH2F, B^1Aoa2(H5, H10,Y16,L17)25a: A^1(pNH2—F19, N18, N21]
% (of insulin) [6]: 81% | % (of insulin) [7]: 48%
